Data taken from PubChem BioAssay (NCI).
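1) Cells in 96-well plates. 2) Compound, 48 h, 5 concentrations. 3) Linear interpolation between surrounding doses. 4) Unreached endpoint = highest concentration. TGI is the concentration that stops growth completely.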 Where a SMILES comes first, the peptide text is derived from it. [ ]: non-standard residue; d: D form. pGlu = O=C1CC[CH](C(=O)O)N1

How the values were obtained:
Assay in all cases: inhibition of tumour cell growth, NCI panel, 48 h
SNB-75 CNS = tested on: SNB-75 CNS
DU-145 prostate = tested on: DU-145 prostate
U251 CNS = tested on: U251 CNS
HOP-92 NSCLC = tested on: HOP-92 NSCLC
PC-3 prostate = tested on: PC-3 prostate
MOLT-4 leukemia = tested on: MOLT-4 leukemia
MDA-N = tested on: MDA-N
NCI/ADR-RES ovarian = tested on: NCI/ADR-RES ovarian
HCC-2998 colon = tested on: HCC-2998 colon
HT29 colon = tested on: HT29 colon
MALME-3M melanoma = tested on: MALME-3M melanoma
CAKI-1 renal = tested on: CAKI-1 renal
HCT-15 colon = tested on: HCT-15 colon
IGROV1 ovarian = tested on: IGROV1 ovarian
NCI-H23 lung = tested on: NCI-H23 lung
OVCAR-5 ovarian = tested on: OVCAR-5 ovarian
SR leukemia = tested on: SR leukemia
HS 578T breast = tested on: HS 578T breast

| SMILES | TGI (SNB-75 CNS) [µM] | TGI (DU-145 prostate) [µM] | TGI (U251 CNS) [µM] | TGI (HOP-92 NSCLC) [µM] | TGI (PC-3 prostate) [µM] | TGI (MOLT-4 leukemia) [µM] | TGI (MDA-N) [µM] | TGI (NCI/ADR-RES ovarian) [µM] | TGI (HCC-2998 colon) [µM] | TGI (HT29 colon) [µM] | TGI (MALME-3M melanoma) [µM] | TGI (CAKI-1 renal) [µM] | TGI (HCT-15 colon) [µM] | TGI (IGROV1 ovarian) [µM] | TGI (NCI-H23 lung) [µM] | TGI (OVCAR-5 ovarian) [µM] | TGI (SR leukemia) [µM] | TGI (HS 578T breast) [µM] |
| --- | --- | --- | --- | --- | --- | --- | --- | --- | --- | --- | --- | --- | --- | --- | --- | --- | --- | --- |
| CCOC(=O)C1=CC(C)(C(=O)OCC)Nc2c(nc(SC)n(C)c2=O)N1 (configuration not stated) | > 10 | > 10 | > 10 | > 10 | > 10 | > 10 | > 10 | > 10 | > 10 | > 10 | > 10 | > 10 | > 10 | > 10 | > 10 | > 10 | – | – |
| CC1(C)OCC(COC(=O)NCn2cc(-c3ccccc3)nn2)O1 (configuration not stated) | > 100 | > 100 | > 100 | > 100 | > 100 | > 100 | – | > 100 | > 100 | > 100 | > 100 | > 100 | > 100 | > 100 | > 100 | > 100 | > 100 | – |
| O=C(NC12CC3CC(CC(C3)C1)C2)C(=O)c1c[nH]c2ccc([N+](=O)[O-])cc12 | 52.8 | – | > 46.8 | > 90.5 | – | > 100 | – | – | > 100 | > 100 | > 94.5 | > 100 | > 100 | > 100 | > 100 | > 100 | > 100 | – |
| Cc1oncc1NC1=CC(=O)C(=O)c2ccccc21 | 27.2 | 31.7 | 17.3 | 24 | 10 | 11.9 | – | > 100 | 33.4 | 11.6 | 8.69 | 22.6 | 12.2 | 11.8 | 17.6 | 26.5 | 34.6 | 71.5 |
| CC(NC(=O)C(Cc1cnc[nH]1)NC(=O)C1CCC(=O)N1)C(N)=O (stereo not drawn) ([pGlu]-His-Ala-NH2; configuration not given here) | > 100 | > 100 | > 100 | > 100 | > 100 | > 100 | > 100 | – | > 100 | > 100 | > 100 | – | – | > 100 | > 100 | > 100 | > 100 | > 100 |
| COc1ccc2c(c1)CC1(O)COc3cc(OC)ccc3C1O2 (configuration not stated) | – | > 100 | > 100 | > 100 | > 100 | > 100 | > 100 | > 100 | > 100 | > 100 | > 100 | > 100 | > 100 | > 100 | > 100 | > 100 | > 100 | – |
| COc1ccc(-c2nnc(-c3c(C)n(C)n(-c4ccccc4)c3=O)o2)cc1 | > 100 | – | > 100 | > 100 | – | > 100 | – | – | > 100 | > 100 | > 100 | – | > 100 | > 100 | > 100 | – | > 100 | – |
| Cc1ccc(S(=O)(=O)C2c3nc4ccccc4cc3-c3nc4ccccc4nc32)cc1 (configuration not stated) | > 100 | – | > 100 | > 100 | – | > 100 | – | – | > 100 | – | > 100 | > 100 | > 100 | > 100 | > 100 | > 100 | > 100 | – |
| C=CC[C@@H]1C=C[C@@H](C(=O)OC)n2c(=O)n(-c3ccccc3)c(=O)n21 | > 100 | > 100 | > 100 | > 100 | – | > 100 | – | > 100 | > 100 | > 100 | – | > 100 | > 100 | > 100 | > 100 | > 100 | > 100 | > 100 |
| CCC/C(Cl)=N\OC(=O)Nc1ccc(F)c([N+](=O)[O-])c1 | 33 | 28.6 | 37.3 | 31.7 | 28.5 | 11.2 | 47.6 | 36.6 | 31.3 | 45.3 | 22.8 | 15.5 | 34.8 | 28.7 | 28.1 | 44.4 | – | – |
| COc1cc2cc3c4c(cc(OC)c(OC)c4c2cc1OC)CCN3C(=O)N(C)C | > 100 | – | > 100 | > 100 | – | > 100 | – | – | > 100 | > 100 | > 100 | > 100 | > 100 | > 100 | > 10 | > 100 | > 100 | – |
| CC(O)c1cc2c(s1)C(=O)c1scc(C(C)O)c1C2=O (configuration not stated) | 0.767 | 1.73 | 4.07 | 7.07 | 3.48 | 5.4 | 0.421 | 1.05 | 3.46 | 5.27 | 0.35 | 2.74 | 1.13 | 3.63 | 0.415 | 3.37 | > 100 | – |
| CC(=O)Nc1ccc(-c2nnc(SCC(=O)Nc3cccc([N+](=O)[O-])c3)o2)cc1 | 32.9 | – | 29.3 | 35.3 | – | > 100 | – | – | – | 37.2 | 23.9 | 55.8 | 46.2 | 31.4 | 21.2 | 50.2 | 89.2 | – |
| N#CCSc1c(-c2ccccc2)c(=O)n(-c2ccccc2)c(=S)n1-c1ccccc1 | > 100 | – | > 100 | > 100 | > 100 | > 100 | > 100 | > 100 | – | > 100 | > 100 | > 100 | > 100 | > 100 | > 100 | > 100 | > 100 | > 100 |
| Clc1ccc2nc(CC3CCCC3)[nH]c2c1 | 56 | 54.6 | 36.5 | 34 | 71 | 35 | 38.5 | 35.6 | 41.8 | 33.5 | 45.1 | 27.6 | 22.9 | 19 | 30.6 | 67.5 | 26.5 | – |
